Results reported in article PMC3226499, “Environmental Impact on Vascular Development Predicted by High-Throughput Screening” (Environmental Health Perspectives, 2011).
Read-outs that look alike come from different tables or passages of the source.

Experiments:
TIE2 = TIE2 (Homo sapiens, UniProt Q02763); experiment: TIE2 cell-free biochemical assay
Description: Assays measured direct interactions between chemicals and molecular targets (receptors, enzymes), as well as downstream effects on reporter gene activity or cellular consequences. […] The perturbation scores are a method of aggregating assays into groups and providing a higher-level view of chemical activity across important signaling pathways.
(§1) The chemical library was run against these assays, as was a repeat of the TIE2 assay from the original data series (Table 2).

various species = conditions: cited from earlier work
[1] = system: six prioritized vascular targets (VEGFR2, TIE2, CCL2, PAI-1, CXCL10, uPAR); experiment: Vascular bioactivity score (VBS): weighted sum of activity across 23 ToxCast assays; set-up: species or system human; conditions: ToxCast chemicals of Table 2
EphB2 = biological target: T1, EphB2 (Homo sapiens, UniProt P29323); experiment: EphB2 biochemical assay; conditions: read-out: EphB2 AC50
T1 sequence (P29323 569-986 isoform P29323-2 limits assumed): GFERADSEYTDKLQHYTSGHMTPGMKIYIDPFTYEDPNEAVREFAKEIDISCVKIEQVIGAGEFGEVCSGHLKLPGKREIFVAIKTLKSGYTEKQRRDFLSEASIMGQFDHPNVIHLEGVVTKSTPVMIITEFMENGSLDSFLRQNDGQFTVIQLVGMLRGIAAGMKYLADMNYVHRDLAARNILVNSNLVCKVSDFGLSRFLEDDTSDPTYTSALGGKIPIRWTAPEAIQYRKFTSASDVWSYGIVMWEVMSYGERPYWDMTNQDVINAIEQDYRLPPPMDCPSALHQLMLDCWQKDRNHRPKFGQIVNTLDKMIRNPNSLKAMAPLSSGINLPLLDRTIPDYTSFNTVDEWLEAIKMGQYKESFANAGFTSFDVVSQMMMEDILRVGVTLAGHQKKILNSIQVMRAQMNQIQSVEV

VEGFR3 = VEGFR3 (Homo sapiens, UniProt P35916); experiment: VEGFR3 biochemical assay; conditions: read-out: VEGFR3 AC50
VEGFR3, sequence (P35916 25-1363, species assumed): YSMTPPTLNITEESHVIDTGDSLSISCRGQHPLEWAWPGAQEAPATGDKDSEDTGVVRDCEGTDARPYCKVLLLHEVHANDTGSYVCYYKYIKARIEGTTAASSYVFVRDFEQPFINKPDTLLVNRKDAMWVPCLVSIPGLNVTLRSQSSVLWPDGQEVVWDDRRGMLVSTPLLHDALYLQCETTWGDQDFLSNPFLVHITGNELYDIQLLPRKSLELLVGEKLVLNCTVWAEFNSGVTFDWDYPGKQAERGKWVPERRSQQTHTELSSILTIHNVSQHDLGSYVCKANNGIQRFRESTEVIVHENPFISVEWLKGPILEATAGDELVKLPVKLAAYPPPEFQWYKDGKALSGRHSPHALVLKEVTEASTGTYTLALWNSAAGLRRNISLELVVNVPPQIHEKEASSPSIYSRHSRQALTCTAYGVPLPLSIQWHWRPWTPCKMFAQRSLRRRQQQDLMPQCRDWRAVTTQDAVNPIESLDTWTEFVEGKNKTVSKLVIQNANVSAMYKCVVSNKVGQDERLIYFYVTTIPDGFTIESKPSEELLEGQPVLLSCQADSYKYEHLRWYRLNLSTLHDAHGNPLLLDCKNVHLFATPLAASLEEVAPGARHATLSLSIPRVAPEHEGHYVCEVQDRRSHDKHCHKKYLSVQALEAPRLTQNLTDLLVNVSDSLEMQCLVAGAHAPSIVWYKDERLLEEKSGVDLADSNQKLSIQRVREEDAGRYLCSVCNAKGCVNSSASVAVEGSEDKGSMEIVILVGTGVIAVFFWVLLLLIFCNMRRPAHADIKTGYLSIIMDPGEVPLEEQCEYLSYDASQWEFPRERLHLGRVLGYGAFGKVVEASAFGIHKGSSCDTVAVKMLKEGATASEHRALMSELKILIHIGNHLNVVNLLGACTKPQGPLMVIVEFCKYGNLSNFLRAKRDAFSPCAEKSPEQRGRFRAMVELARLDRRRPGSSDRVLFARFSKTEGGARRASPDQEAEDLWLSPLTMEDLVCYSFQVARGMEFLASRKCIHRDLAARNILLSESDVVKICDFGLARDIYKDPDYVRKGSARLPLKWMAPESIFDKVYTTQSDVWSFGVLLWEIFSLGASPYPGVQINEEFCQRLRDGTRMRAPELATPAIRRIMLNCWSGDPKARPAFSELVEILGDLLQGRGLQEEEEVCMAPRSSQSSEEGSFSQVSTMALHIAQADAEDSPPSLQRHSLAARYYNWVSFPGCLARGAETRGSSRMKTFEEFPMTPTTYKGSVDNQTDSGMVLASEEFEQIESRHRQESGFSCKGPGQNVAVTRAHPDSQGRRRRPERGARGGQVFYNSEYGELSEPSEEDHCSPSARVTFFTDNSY

VEGFR2 = VEGFR2 (Homo sapiens, UniProt P35968); experiment: VEGFR2 biochemical assay; conditions: read-out: VEGFR2 AC50; biochemical
VEGFR2, sequence (P35968 20-1356, species assumed): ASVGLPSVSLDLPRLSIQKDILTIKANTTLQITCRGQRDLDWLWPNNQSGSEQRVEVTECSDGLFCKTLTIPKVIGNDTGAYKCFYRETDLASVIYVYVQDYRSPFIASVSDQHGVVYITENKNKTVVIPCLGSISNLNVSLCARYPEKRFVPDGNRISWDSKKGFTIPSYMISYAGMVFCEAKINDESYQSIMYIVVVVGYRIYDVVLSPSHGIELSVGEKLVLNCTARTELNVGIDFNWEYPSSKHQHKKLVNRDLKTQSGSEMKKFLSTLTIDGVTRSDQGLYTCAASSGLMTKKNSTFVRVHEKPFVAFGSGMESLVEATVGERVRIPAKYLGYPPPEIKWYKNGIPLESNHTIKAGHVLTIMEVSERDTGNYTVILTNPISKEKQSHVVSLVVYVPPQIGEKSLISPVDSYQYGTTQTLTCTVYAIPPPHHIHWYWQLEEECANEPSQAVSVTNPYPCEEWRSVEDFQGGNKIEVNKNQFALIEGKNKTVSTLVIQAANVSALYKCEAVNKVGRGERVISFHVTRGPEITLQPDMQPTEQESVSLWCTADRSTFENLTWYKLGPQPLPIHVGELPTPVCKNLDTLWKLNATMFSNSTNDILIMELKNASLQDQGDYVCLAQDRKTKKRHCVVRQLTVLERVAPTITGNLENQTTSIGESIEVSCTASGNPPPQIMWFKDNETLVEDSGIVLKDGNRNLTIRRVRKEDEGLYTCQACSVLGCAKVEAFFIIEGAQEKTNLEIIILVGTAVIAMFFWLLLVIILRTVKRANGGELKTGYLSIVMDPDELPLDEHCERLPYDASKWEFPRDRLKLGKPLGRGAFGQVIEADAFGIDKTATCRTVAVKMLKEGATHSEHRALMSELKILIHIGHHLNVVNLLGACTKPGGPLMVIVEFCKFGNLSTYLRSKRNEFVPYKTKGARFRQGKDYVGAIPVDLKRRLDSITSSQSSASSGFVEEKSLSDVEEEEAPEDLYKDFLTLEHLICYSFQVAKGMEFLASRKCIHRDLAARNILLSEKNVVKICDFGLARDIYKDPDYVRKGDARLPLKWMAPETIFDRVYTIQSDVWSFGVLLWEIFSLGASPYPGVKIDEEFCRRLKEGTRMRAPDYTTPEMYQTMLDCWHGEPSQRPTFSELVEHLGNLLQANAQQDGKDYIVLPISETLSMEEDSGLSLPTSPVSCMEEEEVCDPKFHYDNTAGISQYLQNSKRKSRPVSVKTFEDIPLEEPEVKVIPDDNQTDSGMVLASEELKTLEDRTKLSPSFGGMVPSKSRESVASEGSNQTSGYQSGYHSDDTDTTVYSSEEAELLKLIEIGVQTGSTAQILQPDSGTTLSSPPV

PTEN = PTEN (Homo sapiens, UniProt P60484); experiment: PTEN biochemical assay; conditions: read-out: PTEN AC50
PI3Ka = PI3Ka (Homo sapiens, UniProt P42336); experiment: PI3Ka biochemical assay
VEGFR1 = VEGFR1 (Homo sapiens, UniProt P17948); experiment: VEGFR1 biochemical assay; conditions: read-out: VEGFR1 AC50
VEGFR1, sequence (P17948 27-1338, species assumed): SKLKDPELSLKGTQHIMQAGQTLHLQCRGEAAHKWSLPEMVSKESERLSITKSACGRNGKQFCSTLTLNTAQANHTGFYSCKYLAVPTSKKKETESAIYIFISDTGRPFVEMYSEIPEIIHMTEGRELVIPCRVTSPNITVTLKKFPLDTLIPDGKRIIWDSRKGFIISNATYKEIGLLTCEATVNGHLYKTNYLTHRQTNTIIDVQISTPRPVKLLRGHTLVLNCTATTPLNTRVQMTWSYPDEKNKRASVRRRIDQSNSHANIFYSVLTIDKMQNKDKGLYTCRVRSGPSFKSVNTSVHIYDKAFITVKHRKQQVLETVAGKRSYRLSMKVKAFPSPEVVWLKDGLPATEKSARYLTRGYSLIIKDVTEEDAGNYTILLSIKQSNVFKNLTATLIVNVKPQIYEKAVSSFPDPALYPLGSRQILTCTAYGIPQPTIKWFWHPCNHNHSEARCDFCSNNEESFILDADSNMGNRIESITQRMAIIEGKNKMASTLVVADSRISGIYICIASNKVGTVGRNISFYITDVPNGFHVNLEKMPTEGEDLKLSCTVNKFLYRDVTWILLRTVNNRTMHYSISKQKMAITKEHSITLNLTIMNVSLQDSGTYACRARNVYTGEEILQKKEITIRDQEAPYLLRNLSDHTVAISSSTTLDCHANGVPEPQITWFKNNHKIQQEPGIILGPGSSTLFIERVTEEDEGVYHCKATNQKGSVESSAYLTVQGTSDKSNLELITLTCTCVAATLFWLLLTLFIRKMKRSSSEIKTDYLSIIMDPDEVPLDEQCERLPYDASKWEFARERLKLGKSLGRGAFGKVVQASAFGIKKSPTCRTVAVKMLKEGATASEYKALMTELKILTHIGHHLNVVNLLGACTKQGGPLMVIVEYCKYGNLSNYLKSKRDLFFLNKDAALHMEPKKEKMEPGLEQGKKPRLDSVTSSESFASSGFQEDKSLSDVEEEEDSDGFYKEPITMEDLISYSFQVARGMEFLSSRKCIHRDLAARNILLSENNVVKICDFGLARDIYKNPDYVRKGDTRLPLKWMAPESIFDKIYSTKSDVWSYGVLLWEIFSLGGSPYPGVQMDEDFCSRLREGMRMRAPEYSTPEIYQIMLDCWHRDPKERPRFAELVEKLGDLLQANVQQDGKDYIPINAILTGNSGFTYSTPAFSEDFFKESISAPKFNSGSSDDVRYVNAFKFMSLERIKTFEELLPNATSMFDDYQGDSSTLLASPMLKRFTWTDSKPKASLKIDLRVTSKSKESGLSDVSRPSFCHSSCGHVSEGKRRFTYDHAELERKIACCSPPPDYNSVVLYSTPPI
Description: as §1

rat [2] = conditions: cited from earlier work
rat/rabbit = conditions: in vivo; cited from earlier work
mouse = conditions: cited from earlier work
rat [3] = conditions: in vivo; cited from earlier work
[4] = species and reference printed with each result
[5] = read-out: TIE2 AC50, repeat of the TIE2 assay from the original data series
[6] = ToxRefDB end points, ref U.S. EPA 2010b

TIE2, sequence (Q02763 23-1124, species assumed): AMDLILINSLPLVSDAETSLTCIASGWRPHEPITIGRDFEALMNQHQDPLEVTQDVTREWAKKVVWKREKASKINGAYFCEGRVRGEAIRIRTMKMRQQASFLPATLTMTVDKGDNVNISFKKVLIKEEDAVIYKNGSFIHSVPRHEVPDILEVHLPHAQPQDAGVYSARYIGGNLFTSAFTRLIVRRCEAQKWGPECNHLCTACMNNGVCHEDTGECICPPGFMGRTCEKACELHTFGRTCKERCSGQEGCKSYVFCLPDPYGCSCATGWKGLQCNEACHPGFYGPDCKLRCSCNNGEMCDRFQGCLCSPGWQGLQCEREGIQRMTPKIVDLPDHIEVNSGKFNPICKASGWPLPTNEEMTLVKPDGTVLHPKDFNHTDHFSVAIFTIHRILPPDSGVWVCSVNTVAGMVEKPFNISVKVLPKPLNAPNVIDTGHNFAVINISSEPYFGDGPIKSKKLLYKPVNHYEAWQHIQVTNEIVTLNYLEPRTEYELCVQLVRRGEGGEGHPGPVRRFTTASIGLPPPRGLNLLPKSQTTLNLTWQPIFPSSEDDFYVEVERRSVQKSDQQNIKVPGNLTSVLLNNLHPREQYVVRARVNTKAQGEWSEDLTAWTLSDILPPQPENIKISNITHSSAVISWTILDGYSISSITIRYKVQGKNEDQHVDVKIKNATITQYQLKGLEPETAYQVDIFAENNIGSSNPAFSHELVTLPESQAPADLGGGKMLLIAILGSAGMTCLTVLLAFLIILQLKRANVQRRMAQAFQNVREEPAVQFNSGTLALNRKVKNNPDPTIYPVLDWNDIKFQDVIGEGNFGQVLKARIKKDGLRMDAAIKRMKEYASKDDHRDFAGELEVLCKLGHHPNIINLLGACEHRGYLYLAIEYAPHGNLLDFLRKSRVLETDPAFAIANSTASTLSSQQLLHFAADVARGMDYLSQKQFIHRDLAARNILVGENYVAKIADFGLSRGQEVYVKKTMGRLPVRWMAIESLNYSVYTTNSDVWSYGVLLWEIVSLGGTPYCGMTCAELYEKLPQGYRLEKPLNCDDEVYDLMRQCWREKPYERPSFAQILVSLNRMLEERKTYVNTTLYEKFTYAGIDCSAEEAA

| Compound | VBS [1] | AC50 (TIE2; [5]) [µM] | AC50 (VEGFR3) [µM] | AC50 (VEGFR2) [µM] | AC50 (PTEN) [µM] | AC50 (VEGFR1) [µM] | also measured |
| --- | --- | --- | --- | --- | --- | --- | --- |
| O=C(O)C(F)(F)C(F)(F)C(F)(F)C(F)(F)C(F)(F)C(F)(F)C(F)(F)F [Perfluorooctanoic acid] | 3.04 |  |  |  |  |  | AC50 (TIE2): 31.9 µM; VTKB Results (peer-reviewed in vivo studies) (various species; [4]): mammalian developmental toxicity |
| Mancozeb | 3.00 | 10.4 | 1.3 | 5.9 | 0.23 | 19 | AC50 (EphB2): 21 µM; PI3Ka AC50 (PI3Ka): 20 µM |
| C=CCOC(Cn1ccnc1)c1ccc(Cl)cc1Cl (stereo not drawn) [Imazalil] |  |  |  |  |  |  | VTKB Results (peer-reviewed in vivo studies) (various species; [4]): mammalian developmental toxicity |
| O=S(=O)(O)C(F)(F)C(F)(F)C(F)(F)C(F)(F)C(F)(F)C(F)(F)C(F)(F)C(F)(F)F [Perfluorooctanesulfonic acid] | 3.48 | 4.43 | 8 | 50 | 17 | 8.2 | PI3Ka AC50 (PI3Ka): 6.5 µM |
| N#Cc1nn(-c2c(Cl)cc(C(F)(F)F)cc2Cl)c(N)c1[S+]([O-])C(F)(F)F (stereo not drawn) [Fipronil] |  |  |  |  |  |  | RAT Multigenerational (rat [2]; rat, in vivo): Epididymis; Fertili ty; LitterSize; LiveBir thPND1; Liver; Mating; Ovary; Thyroid; ViabilityPND4; RAT/RABBIT Developmental (rat/rabbit): No effe ct recorded; VTKB Results (peer-reviewed in vivo studies) (various species; in vivo): Developmental Neurotoxi city: Zebrafish (Stehr e t al. 2006); MOUSE Chronic (mouse; mouse, in vivo): LiverHypertrophy; LiverNec rosis; LiverProli ferativeLes ions; Liver_ AnyLes ion, PreneoplasticL esion; RAT Chronic (rat [3]): KidneyNephropath y; Kidney_ AnyLesion; ThyroidGland_ AnyLesion, PreneoplasticL esion, Neoplasti cLesion; ThyroidProliferativeLesions; ThyroidTumors; Tumorigen |
| CCC(C)(NC(=O)c1cc(Cl)c(C)c(Cl)c1)C(=O)CCl (stereo not drawn) [Zoxamide] |  |  |  |  |  |  | RAT Multigenerational (rat [2]; rat, in vivo): No effe ct recorded; RAT/RABBIT Developmental (rat/rabbit): No effe ct recorded; MOUSE Chronic (mouse; mouse, in vivo): LungTumors; Lung_ AnyLesion, PreneoplasticL esion, Neoplasti cLesion; Tumorigen; RAT Chronic (rat [3]): No effe ct re corded |
| CC(C)N1C(=O)c2ccccc2NS1(=O)=O [Bentazone] |  |  |  |  |  |  | RAT Multigenerational (rat [2]; [6]): Kidney; Liver |
| Metiram-zinc | 4.35 | 15 | 22 | 41 | 12 | 6.6 | PI3Ka AC50 (PI3Ka): 29 µM |
| CCc1ccc(C(=O)NN(C(=O)c2cc(C)cc(C)c2)C(C)(C)C)cc1 [Tebufenozide] |  |  |  |  |  |  | MOUSE Chronic (mouse; [6]): Spleen_ AnyLesion |
| S=C([S-])NCCNC(=S)[S-].[Mn+2] [Maneb] | 4.69 | 8.08 | 12 | 31 | 0.9 | 4.1 | AC50 (EphB2): 23 µM |
| CCOP(=S)(OCC)Oc1ccc2c(C)c(Cl)c(=O)oc2c1 [Coumaphos] |  |  |  |  |  |  | MOUSE Chronic (mouse; [6]): No effe ct re corded |
